ChEMBL document CHEMBL1149752, “Antitumor agents, 135. Structure and stereochemistry of polacandrin, a new cytotoxic triterpene from Polanisia dodecandra” (1992)
≈ marks a conversion by molar mass, not a printed value.

Key:
Type in all cases: functional
Details in all cases: read-out: ED50 (the source's name)
P388 = assay: Cytotoxicity against mouse P388 cells
KB = assay: Cytotoxicity against human KB cells
HCT-8 = assay: Cytotoxicity against human HCT8 cells
RPMI-7951 = assay: Cytotoxicity against human RPMI7951 cells

CC(C)(O)[C@@H]1CC[C@@](C)([C@H]2CC[C@]3(C)[C@@H]2[C@H](O)C[C@@H]2[C@@]4(C)[C@H](O)C[C@@H](O)C(C)(C)[C@@H]4CC[C@]23C)O1 [POLACANDRIN]
EC50 (P388): 0.9 µg/mL (≈ 1.83 µM) | EC50 (KB): 0.6 µg/mL (≈ 1.22 µM) | EC50 (HCT-8): 6.06 µg/mL (≈ 12.3 µM) | EC50 (RPMI-7951): 0.62 µg/mL (≈ 1.26 µM)
